The record followed here is US20020098213A1, “USE OF ELLAGIC ACID AND ITS DERIVATIVES IN COSMETICS AND DERMATOLOGY” (priority 1997, published 2002).

Data set [1] concerns normal human keratinocytes. The data set can be described thus: XTT viability test and microscopic observation of the cells. It is filed as cell-based. The note with it: test concentration 0.5 μg per ml; plate treated in parallel. Here is the method:
The cells are inoculated in a 96-well culture plate at a rate of 25,000 NHK per well in SFMc. After incubation for 24 h, which is necessary for good adhesion of the cells, the medium is replaced with SFMc diluted to 2% to limit the proliferation of the keratinocytes during the test. The test concentration of ellagic acid is 0.5 microgram per ml of test medium, which is obtained immediately beforehand from a stock solution containing 0.5 mg of ellagic acid per ml of DMSO. The final concentration of DMSO in the test medium is therefore 0.1% V/Vfinal. This concentration is not toxic to the cells. The control consists of SFMc test medium diluted to 2%, to which 0.1% V/V of DMSO has been added. Six cultures are prepared for the test product and six for the control experiment.
A plate treated in parallel is used for the XTT viability test with the XTT kit from Boehringer, reference 146 50 15, in order to measure the mitochondrial dehydrogenase activity of the viable cells.

Data set [2] deals with collagen VII in a culture of normal human keratinocytes. The data set can be described thus: ELISA of collagen VII in supernatants of normal human keratinocyte cultures. It is filed as cell-based. The conditions noted are these: ellagic acid 0.5 μg/ml; for RODC for 72 h of incubation: reduced optical density corrected to 100 μg cellular proteins; for A for 72 h of incubation (activity on the proportion of collagen VII): relative to control culture. For orientation: In an ELISA, binding on a coated surface is turned into a signal by an enzyme label.

With `O=c1oc2c(O)c(O)cc3c(=O)oc4c(O)c(O)cc1c4c23` [Ellagic acid, 2,3,7,8-tetrahydroxy(1)-benzopyrano-pyrano (5,4,3-cde)(1)benzopyran-5,10-dione], in data set [1], the “viability (mitochondrial dehydrogenase activity of viable cells, XTT; microscopic observation)” value is “No significant drop in viability”. In addition, in data set [2] (NHK 1106P1 (face-lift)), the “RODC for 72 h of incubation” value is listed as 1.563 ± 0.240 and the “A for 72 h of incubation (activity on the proportion of collagen VII)” value is reported as “+64%”. For the same compound, in data set [2] (NHK 1124P2 (face-lift)), the “RODC for 72 h of incubation” value was determined as 1.098 ± 0.100 and the “A for 72 h of incubation (activity on the proportion of collagen VII)” value was “+42%”. Moreover, the “proportion of collagen VII present in the culture media” value in data set [2] (both strains) is “large and significant increase”.
